Assay results from patent US7446199B2, “Compositions useful as inhibitors of protein kinases” (Vertex Pharmaceuticals Incorporated, priority 2003, dated 2008).

Assays:
Assay type in all cases: biochemical
Aurora-2 = molecular target: T1, Aurora-2 (Homo sapiens, UniProt O14965); test: Inhibition of AUR-2, coupled enzyme assay; conditions: 70 nM Aurora-2, 800 μM peptide LRRASLG, 30° C.
T1 construct: addition of 10 μL of Aurora-2 stock solution to give a final concentration of 70 nM
T1 sequence (O14965 1-403): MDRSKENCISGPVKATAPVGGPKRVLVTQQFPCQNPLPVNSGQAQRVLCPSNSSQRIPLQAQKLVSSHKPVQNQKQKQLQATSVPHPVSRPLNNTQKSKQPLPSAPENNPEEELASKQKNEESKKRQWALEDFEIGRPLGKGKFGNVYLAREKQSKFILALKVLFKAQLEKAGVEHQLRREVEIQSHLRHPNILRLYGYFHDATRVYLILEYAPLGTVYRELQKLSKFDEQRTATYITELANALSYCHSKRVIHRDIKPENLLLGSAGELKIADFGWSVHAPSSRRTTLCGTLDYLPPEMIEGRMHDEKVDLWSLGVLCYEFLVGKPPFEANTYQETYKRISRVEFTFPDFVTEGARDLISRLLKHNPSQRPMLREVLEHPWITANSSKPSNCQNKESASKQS
Description: Compounds are screened in the following manner for their ability to inhibit Aurora-2 using a standard coupled enzyme assay (Fox et al. (1998) Protein Sci 7, 2249). To an assay stock buffer solution containing 0.1M HEPES 7.5, 10 mM MgCl2, 1 mM DTT, 25 mM NaCl, 2.5 mM phosphoenolpyruvate, […], […], […], and 800 μM peptide (LRRASLG, American Peptide, Sunnyvale, Calif.) is added a DMSO solution of a compound of the present invention to a final concentration of 30 μM. The resulting mixture is incubated at 30° C. for 10 min. The reaction was initiated by the addition of 10 μL of Aurora-2 stock solution to give a final concentration of 70 nM in the assay. The rates of reaction are obtained by monitoring absorbance at 340 nm over a 5 minute read time at 30° C. using a BioRad Ultramark plate reader (Hercules, Calif.). The Ki values are determined from the rate data as a function of inhibitor concentration.

SYK = SYK (Homo sapiens, UniProt P43405); test: SYK enzyme assay, coupled enzyme assay; conditions: 200 μM ATP, 4 μM poly Gly-Tyr peptide, 30° C.
Description: Compounds were screened for their ability to inhibit SYK using a standard coupled enzyme assay (Fox et al., Protein Sci. 1998, 7, 2249). Reactions were carried out in 100 mM HEPES (pH 7.5), 10 mM MgCl2, 25 mM NaCl, 1 mM DTT and 1.5% DMSO. Final substrate concentrations in the assay were 200 μM ATP (Sigma chemical Co.) and 4 μM poly Gly-Tyr peptide (Sigma Chemical Co.). Assays were carried out at 30° C. and 200 nM SYK. Final concentrations of the components of the coupled enzyme system were 2.5 mM phosphoenolpyruvate, 300 μM NADH, 30 μg/ml pyruvate kinase and 10 μg/ml lactate dehydrogenase.
An assay stock buffer solution was prepared containing all of the reagents listed above, with the exception of SYK, DTT, and the test compound of interest of the present invention. 56 μl of the test reaction was placed in a 96 well plate followed by the addition of 1 μl of 2 mM DMSO stock containing the test compound of the present invnetion (final compound concentration 30 μM). The plate was pre-incubated for ˜10 minutes at 30° C. and the reaction initiated by the addition of 10 μl of enzyme (final concentration 25 nM). Rates of reaction were obtained using a BioRad Ultramark plate reader (Hercules, Calif.) over a 5 minute read time at 30° C., and Ki values for the compounds of the present invention were determined according to standard methods.

TAK1A-TAB fusion protein = molecular target: T2, TAK1A-TAB fusion protein (Homo sapiens, UniProt O43318); test: TAK-1 inhibition assay, radiometric filter binding assay; conditions: 50 μM ATP, 12 μM bovine myelin basic protein, 20 nM TAK1A-TAB fusion protein
T2 construct: using 20 nM TAK1A-TAB fusion protein
T2 sequence (O43318 with tags, fused parts or gaps isoform O43318-2 limits assumed): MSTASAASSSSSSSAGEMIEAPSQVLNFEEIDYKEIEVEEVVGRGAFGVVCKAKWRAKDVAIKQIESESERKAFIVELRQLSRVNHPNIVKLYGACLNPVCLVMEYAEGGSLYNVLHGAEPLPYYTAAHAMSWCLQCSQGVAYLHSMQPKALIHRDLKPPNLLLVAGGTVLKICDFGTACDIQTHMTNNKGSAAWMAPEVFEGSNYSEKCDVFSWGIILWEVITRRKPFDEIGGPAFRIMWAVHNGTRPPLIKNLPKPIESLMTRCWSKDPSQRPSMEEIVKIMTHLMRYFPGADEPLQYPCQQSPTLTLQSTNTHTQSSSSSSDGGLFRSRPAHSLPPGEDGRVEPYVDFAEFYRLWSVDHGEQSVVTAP
Description: Compounds were screened for their ability to inhibit TAK1A kinase activity using a radiometric filter binding assay. Reactions were carried out in a solution containing Buffer A (100 mM HEPES (pH 7.5), 10 mM MgCl2), 25 mM NaCl, 2 mM DTT, and 1.5% DMSO. Final substrate concentrations in the assay were 50 μM ATP (a mixture of unlabeled ATP (Sigma Chemicals, St Louis, Mo.) and ^33P-labeled ATP (PerkinElmer Life Sciences, Boston, Mass.) for a final specific activity of 50 Ci/mol), and 12 μM bovine myelin basic protein (MBP, Vertex Pharmaceuticals, Cambridge, Mass.). Reactions were carried out at ambient temperature (˜20° C.) using 20 nM TAK1A-TAB fusion protein. Under these conditions the extent of reaction is linear with time for a period of 2 hours.
A test compound of the present invention (1 μL in DMSO) was combined with ATP and Buffer A in a final volume of 47 μL in a 96 well plate. Typically, a 6 point titration was conducted by preparing serial dilutions (from 10 mM compound stocks) with DMSO of the test compounds of the present invention in daughter plates, for final concentrations spanning 0.046 μM to 3.73 μM. The reaction was initiated by the addition of 20 μl of an enzyme stock solution consisting of TAK1A-TAB fusion (described by Sugita, T. et al. in Biochem. Biophys. Res. Comm. 2002, 297, 1277-1281), MBP, Buffer A, NaCl, and DTT. The reaction was allowed to proceed for two hours at ambient temperature, then quenched with an equal volume of 10 mM unlabeled ATP in 10% trichloroacetic acid. A 110 μL aliquot of the quenched reaction was transferred to a Multiscreen PH filter plate (Millipore, Billerica, Mass.) and allowed to incubate at ambient temperature overnight (typically 16-20 hours). Following incubation the filter plates were washed with 3×150 μL aliquots of 5% trichloroacetic acid using a modified Biotek Elx405 plate washer. A 70 μL aliquot of Microscint 20 scintillation fluid (PerkinElmer) was added to each well, and the plate was then sealed and read on a TopCount NXT microplate scintillation counter (PerkinElmer). The Ki values were determined from the rate data as a function of inhibitor concentration.

Row | Compound | Ki (Aurora-2) [nM] | Ki (SYK) [nM] | Ki (TAK1A-TAB fusion protein) [nM]
1 | CN(C)Cc1ccc(-c2cnc3[nH]cc(-c4oncc4-c4cccc(F)c4F)c3c2)nc1 [Compound 84, (6-{3-[4-(2,3-Difluoro-phenyl)-isoxazol-5-yl]-1H-pyrrolo[2,3-b]pyridin-5-yl}-pyridin-3-ylmethyl)-dimethyl-amine] |  | 1000 to 12500 | 200 to 1000
2 | Fc1cccc(-c2cnoc2-c2c[nH]c3ncc(-c4cnc5[nH]ccc5c4)cc23)c1F [Compound 77, 3-[4-(2,3-Difluoro-phenyl)-isoxazol-5-yl]-1H,1′H-[5,5′]bi[pyrrolo[2,3-b]pyridinyl]] |  | 200 to 1000 | 200 to 1000
3 | CN(C)c1cccc(-c2cnc3[nH]cc(-c4oncc4-c4cccc(F)c4F)c3c2)c1 [Compound 61, (3-{3-[4-(2,3-Difluoro-phenyl)-isoxazol-5-yl]-1H-pyrrolo[2,3-b]pyridin-5-yl}-phenyl)-dimethyl-amine] |  | 1000 to 12500 | 200 to 1000
4 | Fc1cccc(-c2cnoc2-c2c[nH]c3ncc(-c4ccccc4)cc23)c1F [Compound 58, 3-[4-(2,3-Difluoro-phenyl)-isoxazol-5-yl]-5-phenyl-1H-pyrrolo[2,3-b]pyridine] | 200 to 1000 |  | 
5 | O=c1[nH]ccc2c(-c3oncc3-c3cccc(F)c3F)c[nH]c12 [Compound 145, 3-[4-(2,3-Difluoro-phenyl)-isoxazol-5-yl]-1,6-dihydro-pyrrolo[2,3-c]pyridin-7-one] | 200 to 1000 |  | 
6 | CN(C)c1ccc(-c2cnc3[nH]cc(-c4oncc4-c4cccc(F)c4F)c3c2)cc1 [Compound 88, (4-{3-[4-(2,3-Difluoro-phenyl)-isoxazol-5-yl]-1H-pyrrolo[2,3-b]pyridin-5-yl}-phenyl)-dimethyl-amine] |  | 1000 to 12500 | 
7 | Nc1ccnc(-c2cnc3[nH]cc(-c4oncc4-c4cccc(F)c4F)c3c2)c1 [Compound 83, 2-{3-[4-(2,3-Difluoro-phenyl)-isoxazol-5-yl]-1H-pyrrolo [2,3-b]pyridin-5-yl}-pyridin-4-ylamine] | 200 to 1000 |  | 
8 | c1cnc2[nH]cc(-c3oncc3C3CCCCC3)c2c1 [Compound 47, 3-(4-Cyclohexyl-isoxazol-5-yl)-1H-pyrrolo[2,3-b]pyridine] | 200 to 1000 |  | 
9 | Clc1cccc(-c2cnoc2-c2c[nH]c3ncccc23)c1Cl [Compound 2, 3-[4-(2,3-Dichloro-phenyl)-isoxazol-5-yl]-1H-pyrrolo[2,3-b]pyridine] | 200 to 1000 |  | 
10 | Fc1cccc(-c2cnoc2-c2c[nH]c3ncc(-c4ncccn4)cc23)c1F [Compound 75, 3-[4-(2,3-Difluoro-phenyl)-isoxazol-5-yl]-5-pyrimidin-2-yl-1H-pyrrolo[2,3-b]pyridine] | 200 to 1000 |  | 
11 | Fc1cccc(-c2cnoc2-c2c[nH]c3ncc(-c4ccccn4)cc23)c1F [Compound 73, 3-(4-(2,3-Difluoro-phenyl)-isoxazol-5-yl)-5-pyridin-2-yl-1H-pyrrolo[2,3-b]pyridine] |  | 1000 to 12500 | 
12 | O=c1ccc(-c2cnc3[nH]cc(-c4oncc4-c4cccc(F)c4F)c3c2)c[nH]1 [Compound 67, 5-{3-[4-(2,3-Difluoro-phenyl)-isoxazol-5-yl]-1H-pyrrolo [2,3-b]pyridin-5-yl}-1H-pyridin-2-one] |  | 200 to 1000 | 

The next lines start with the values.

Row | Ki (Aurora-2) [nM] | Ki (SYK) [nM] | Ki (TAK1A-TAB fusion protein) [nM] | Compound
13 | < 200 |  |  | CC(=O)Nc1ccc(-c2cnc3[nH]cc(-c4oncc4-c4cccc(F)c4F)c3c2)cc1 [Compound 95, N-(4-{3-[4-(2,3-Difluoro-phenyl)-isoxazol-5-yl]-1H-pyrrolo[2,3-b]pyridin-5-yl}-phenyl)-acetamide]
14 | < 200 |  |  | CN1CCN(Cc2ccc(-c3cnc4[nH]cc(-c5oncc5-c5cccc(F)c5F)c4c3)cc2)CC1 [Compound 94, 3-[4-(2,3-Difluoro-phenyl)-isoxazol-5-yl]-5-[4-(4-methyl-piperazin-1-ylmethyl)-phenyl]-1H-pyrrolo[2,3-b]pyridine]
15 | < 200 |  |  | COc1cncc(-c2cnc3[nH]cc(-c4oncc4-c4cccc(F)c4F)c3c2)c1 [Compound 96, 3-[4-(2,3-Difluoro-phenyl)-isoxazol-5-yl]-5-(5-methoxy-pyridin-3-yl)-1H-pyrrolo[2,3-b]pyridine]
16 | 200 to 1000 |  | 200 to 1000 | Oc1cnc2[nH]cc(-c3oncc3-c3cccc(Cl)c3Cl)c2c1 [Compound 48, 3-[4-(2,3-Dichloro-phenyl)-isoxazol-5-yl]-1H-pyrrolo[2,3-b]pyridin-5-ol]
17 | < 200 |  |  | Fc1cccc(-c2cnoc2-c2c[nH]c3ncc(-c4ccc(CN5CCOCC5)cc4)cc23)c1F [Compound 92, 3-[4-(2,3-Difluoro-phenyl)-isoxazol-5-yl]-5-(4-morpholin-4-ylmethyl-phenyl)-1H-pyrrolo[2,3-b]pyridine]
18 | < 200 |  |  | Oc1cccc(-c2cnc3[nH]cc(-c4oncc4-c4cccc(F)c4F)c3c2)c1 [Compound 87, 3-{3-[4-(2,3-Difluoro-phenyl)-isoxazol-5-yl]-1H-pyrrolo [2,3-b]pyridin-5-yl}-phenol]
19 | < 200 |  |  | Fc1cccc(-c2cnoc2-c2c[nH]c3ncc(-c4ccncc4)cc23)c1F [Compound 57, 3-[4-(2,3-Difluoro-phenyl)-isoxazol-5-yl]-5-pyridin-4-yl-1H-pyrrolo[2,3-b]pyridine]
20 | < 200 |  | 200 to 1000 | COc1cnc2[nH]cc(-c3oncc3-c3cccc(Cl)c3Cl)c2c1 [Compound 49, 3-[4-(2,3-Dichloro-phenyl)-isoxazol-5-yl]-5-methoxy-1H-pyrrolo[2,3-b]pyridine]
21 | < 200 |  |  | Fc1cccc(-c2cnoc2-c2c[nH]c3ncc(-c4cccnc4)cc23)c1F [Compound 59, 3-[4-(2,3-Difluoro-phenyl)-isoxazol-5-yl]-5-pyridin-3-yl-1H-pyrrolo[2,3-b]pyridine]
